The text below walks through data of article PMC8880671, “Facial Synthesis and Bioevaluation of Well-Defined OEGylated Betulinic Acid-Cyclodextrin Conjugates for Inhibition of Influenza Infection” (Molecules, 2022).

Like-named read-outs stand apart in the source and are kept apart here. Where only a bound is given, the exact number is not on record here.

Data set [1] relates to MDCK cells. Nature of the data set: Cytotoxicity test, CellTiter-Glo luminescent cell viability assay. The following applies: for MDCK cell viability: 100 µM, 36 h, CellTiter-Glo; for CC50: read-out: CC50 (cytotoxicity concentration for 50% cell death), MDCK cells.
The test system of data set [2] is influenza A/WSN/33 (H1N1) virus. Nature of the data set: microbe, parasite or virus in culture. Type of data set: cell-based. The note with it: for inhibition rate against influenza virus A/WSN/33 (H1N1): CPE-based screening at 20 μM; for IC50: read-out: IC50 (half maximal inhibitory concentration).
The subject of data set [3] is influenza virus. Details: method as in doi:10.1134/S1068162018050059. The note with it: read-out: EC50, anti-influenza activity; cited from earlier work.
Data set [4] can be described thus: Cytotoxicity test, CellTiter-Glo luminescent cell viability assay. The note with it: dog, MDCK cells.
For data set [5], the system named is influenza virus. Set-up: method as in PMID 28792469. The note with it: 50 µg/mL; cited from earlier work.
Data set [6] deals with A/PR/8/34 virus. Set-up: method as in PMID 26157551. The note with it: 10 μM; cited from earlier work.
Data set [7] concerns MDCK cells. The note with it: read-out: CC50 (cytotoxicity concentration for 50% cell death); cited from earlier work.
Data set [8] in a line: in vitro. The following applies: dog.
Data set [9] concerns avian influenza KBNP-0028 (H9N2) virus. The note with it: read-out: EC50 against avian influenza KBNP-0028 (H9N2) virus; cited from earlier work.

A word on the EC50: it is the midpoint of the concentration-response curve. A word on the viability: it is a read-out of living cells in per cent, often relative to untreated cells. The low end stands for more harm to the cells, the high end for less harm to the cells.

“Octakis 6-Deoxy-6-[4-N-[(3,6,9,12-Tetraoxapentadec-14-yn-1-yl)-3β-hydroxy-lup-20(29)-en-28-oyl]-aminomethyl-1H-1,2,3-triazol-1-yl]-γ-CD [Compound 80]” had an MDCK cell viability in data set [1] of 64%.

As to “Hexakis 6-Deoxy-6-[4-N-[(3,6,9,12-Tetraoxapentadec-14-yn-1-yl)-3β-hydroxy-lup-20(29)-en-28-oyl]-aminomethyl-1H-1,2,3-triazol-1-yl]-α-CD [Compound 78]”, the “inhibition rate against influenza virus A/WSN/33 (H1N1)” value (“inhibition rate” below) in data set [2] is “over 50%”.

On to `C=C(C)[C@@H]1CC[C@]2(C(=O)O)CC[C@]3(C)[C@H](CC[C@@H]4[C@@]5(C)CC[C@H](O)C(C)(C)[C@@H]5CC[C@]43C)[C@@H]12` [BA, Betulinic acid], for which, in [3], the EC50 is > 219 µM. For the same molecule, in data set [4], the viability at 36 h, 100 µM was determined as 8.5%. Besides, in data set [5], the “anti-influenza activity (inhibition)” value is given as 27.6%. Besides, the “anti-influenza activity against A/PR/8/34 virus” value in data set [6] is reported as ~ 30%. The CC50 in [7] was 31.9 µM.

For `CC(=O)N[C@H]1[C@H]([C@H](O)[C@H](O)CO)OC(C(=O)O)=C[C@@H]1N=C(N)N` [Zanamivir, reference compound], the “SI (Selectivity Index, ratio of CC50 to IC50)” value in data set [2] is >79.4. The IC50 in data set [2] (Influenza A virus, MDCK, 36 h) amounted to 1.26 ± 0.36 µM. In addition, in data set [8], the CC50 is > 100 µM.

For the molecule `C=C(C)[C@@H]1CC[C@]2(C=O)CC[C@]3(C)[C@H](CC[C@@H]4[C@@]5(C)CC[C@H](O)C(C)(C)[C@@H]5CC[C@]43C)[C@@H]12` [Betulinic aldehyde], the EC50 in data set [9] is 28.4 µM.

The molecule “Heptakis 6-Deoxy-6-[4-N-[(2-(2-(2-Propyn-1-yloxy)ethoxy)ethyl)-3β-hydroxy-lup-20(29)-en-28-Oyl]-aminomethyl-1H-1,2,3-triazol-1-Yl]-2,3-di-O-acetyl-β-CD [Compound 58]” displayed an MDCK cell viability in data set [1] of 68%.

In the case of “Heptakis 6-Deoxy-6-[4-N-(3β-Hydroxy-lup-20(29)-en-28-oyl)-aminomethyl-1H-1,2,3-triazol-1-yl]-β-CD [Compound 70]”, the IC50 in data set [2] was determined as 7.48 ± 1.93 µM. The CC50 in data set [1] is > 100 µM.

The molecule “Heptakis 6-Deoxy-6-[4-N-[(3,6,9,12,15,18-Hexaoxaheneicos-20-yn-1-yl)-3β-hydroxy-lup-20(29)-en-28-oyl]-aminomethyl-1H-1,2,3-triazol-1-yl]-β-CD [Compound 82]” yielded an MDCK cell viability in data set [1] of 67%.

For the molecule “Octakis 6-Deoxy-6-[4-N-(3β-Hydroxy-lup-20(29)-en-28-oyl)-aminomethyl-1H-1,2,3-triazol-1-yl]-γ-CD [Compound 71]”, in data set [2], the IC50 is 7.59 ± 1.57 µM. Moreover, in data set [1], the CC50 was > 100 µM.

With “Hexakis 6-Deoxy-6-[4-N-[(2-(2-(2-Propyn-1-yloxy)ethoxy)ethyl)-3β-hydroxy-lup-20(29)-en-28-oyl]-aminomethyl-1H-1,2,3-triazol-1-yl]-α-CD [Compound 75]”, the IC50 in data set [2] (A/WSN/33 virus in MDCK cells, MOI 0.2, 36 h) is 15.6 ± 3.32 µM. Besides, the “inhibition rate” value in [2] is reported as “over 50%”.

Take “Hexakis 6-Deoxy-6-[4-N-(3β-Hydroxy-lup-20(29)-en-28-oyl)-aminomethyl-1H-1,2,3-triazol-1-yl]-α-CD [Compound 69]”: the IC50 in [2] turned out to be 9.82 ± 1.74 µM. For the same molecule, in [1], the CC50 is > 100 µM.

For “Hexakis 6-Deoxy-6-[4-N-[(2-(2-(2-Propyn-1-yloxy)ethoxy)ethyl)-3β-hydroxy-lup-20(29)-en-28-oyl]-aminomethyl-1H-1,2,3-triazol-1-yl]-2,3-di-O-acetyl-α-CD [Compound 57]”, the “inhibition rate” value in data set [2] is given as “over 50%”.
